ChEMBL document CHEMBL6083283, “Discovery of Dual CDK6/BRD4 Inhibitor Inducing Apoptosis and Increasing the Sensitivity of Ferroptosis in Triple-Negative Breast Cancer” (J Med Chem, 2024)

What was measured:
CDK6/cyclin D3 = CDK6/cyclin D3 (Homo sapiens, UniProt Q00534); assay: Inhibition of full length recombinant human CDK6/CyclinD3 co-expressed by baculovirus in Sf9 insect cells using histone H1 as substrate by ADP-glo kinase assay
[1] = biological target: T1, Bromodomain-containing protein 2 (Homo sapiens, UniProt P25440)
Description: Inhibition of BRD2 BD1 (unknown origin)

[2] = biological target: T1, Bromodomain-containing protein 2; remark: listed apart in the source
Description: Inhibition of BRD2 BD2 (unknown origin)

[3] = biological target: CDK9/cyclin T1 (Homo sapiens) (UniProt O60563+P50750); settings: dose 500.0 nM
Description: Inhibition of CDK9/cyclinT1 (unknown origin) at 500 nM relative to control

MDA-MB-231 [4] = assay: Antitumor activity against human MDA-MB-231 cells xenografted in BALB/c nude mouse assessed as tumor growth inhibition at 50 mg/kg, ip administered for 21 days; settings: MDA-MB-231, 504 h, read-out: TGI
MDA-MB-231 [5] = assay: cells; settings: Homo sapiens, MDA-MB-231, 72 h
Description: Antiproliferative activity against human MDA-MB-231 cells assessed as cell viability incubated for 72 hrs by MTT assay

BT-549 [6] = assay: cells; settings: Homo sapiens, BT-549, 72 h
Description: Antiproliferative activity against human BT-549 cells assessed as cell viability incubated for 72 hrs by MTT assay

in vitro [7] = settings: human, MCF-10A cells
Description: Antiproliferative activity against human MCF-10A cells assessed as cell viability incubated for 72 hrs by MTT assay

MDA-MB-231 [8] = assay: Antiproliferative activity against human MDA-MB-231 cells assessed as cell viability incubated for 72 hrs in presence of Palbociclib by MTT assay; format: functional, cell-based; settings: MDA-MB-231, 72 h
BT-549 [9] = assay: Antiproliferative activity against human BT-549 cells assessed as cell viability incubated for 72 hrs in presence of Palbociclib by MTT assay; format: functional, cell-based; settings: BT-549, 72 h
[10] = Antiproliferative activity against human MCF-10A cells assessed as cell viability incubated for 72 hrs in presence of Palbociclib by MTT assay; format: toxicity, cell-based
in vitro [11] = settings: human, liver microsomes
in vitro [12] = settings: human, liver microsomes; remark: listed apart in the source
Description: Metabolic stability in human liver microsome assessed as intrinsic clearance

CDK6/cyclin D3, sequence (P30281 whole entry): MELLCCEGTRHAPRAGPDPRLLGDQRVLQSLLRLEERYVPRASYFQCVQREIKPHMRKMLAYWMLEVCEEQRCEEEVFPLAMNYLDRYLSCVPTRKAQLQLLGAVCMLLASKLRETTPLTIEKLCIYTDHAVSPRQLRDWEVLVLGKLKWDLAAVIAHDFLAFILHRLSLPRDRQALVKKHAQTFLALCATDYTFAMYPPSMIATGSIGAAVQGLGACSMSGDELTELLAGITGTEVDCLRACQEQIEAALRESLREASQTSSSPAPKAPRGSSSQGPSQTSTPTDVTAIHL
CDK6/cyclin D3, sequence (Q00534 whole entry): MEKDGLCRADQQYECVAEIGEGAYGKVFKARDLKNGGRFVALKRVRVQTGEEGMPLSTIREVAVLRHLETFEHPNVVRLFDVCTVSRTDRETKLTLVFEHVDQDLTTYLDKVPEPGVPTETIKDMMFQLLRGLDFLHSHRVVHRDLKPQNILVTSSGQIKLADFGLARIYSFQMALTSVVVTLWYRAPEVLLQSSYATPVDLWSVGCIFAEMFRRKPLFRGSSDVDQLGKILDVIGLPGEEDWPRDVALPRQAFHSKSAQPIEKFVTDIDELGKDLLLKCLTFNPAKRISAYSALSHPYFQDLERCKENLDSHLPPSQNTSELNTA
T1 sequence (P25440 whole entry): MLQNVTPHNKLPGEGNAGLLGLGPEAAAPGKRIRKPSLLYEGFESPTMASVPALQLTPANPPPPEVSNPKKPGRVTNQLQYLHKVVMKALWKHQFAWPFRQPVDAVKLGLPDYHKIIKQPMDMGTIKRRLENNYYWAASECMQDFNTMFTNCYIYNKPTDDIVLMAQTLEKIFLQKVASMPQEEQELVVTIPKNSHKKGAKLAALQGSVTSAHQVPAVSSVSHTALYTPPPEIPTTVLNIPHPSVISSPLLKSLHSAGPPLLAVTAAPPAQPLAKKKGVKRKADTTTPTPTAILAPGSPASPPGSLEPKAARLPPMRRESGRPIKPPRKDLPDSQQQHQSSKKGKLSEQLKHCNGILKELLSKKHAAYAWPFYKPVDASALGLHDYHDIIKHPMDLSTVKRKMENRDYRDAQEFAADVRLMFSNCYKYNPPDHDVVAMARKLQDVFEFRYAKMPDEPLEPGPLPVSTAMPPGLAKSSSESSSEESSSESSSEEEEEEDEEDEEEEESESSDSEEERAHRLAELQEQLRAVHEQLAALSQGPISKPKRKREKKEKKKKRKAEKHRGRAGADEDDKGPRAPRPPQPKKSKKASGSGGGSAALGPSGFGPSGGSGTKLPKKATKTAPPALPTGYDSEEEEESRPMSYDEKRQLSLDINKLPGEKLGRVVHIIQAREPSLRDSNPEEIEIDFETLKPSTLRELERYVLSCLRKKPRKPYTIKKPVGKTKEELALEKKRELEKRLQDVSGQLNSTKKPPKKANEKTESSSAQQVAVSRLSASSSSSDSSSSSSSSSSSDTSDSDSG

Structure (SMILES)	IC50 (CDK6/cyclin D3) [µM]	inhibition in vivo at 50 mg/kg (MDA-MB-231 [4]) [%]	IC50 (MDA-MB-231 [5]) [µM]	IC50 (BT-549 [6]) [µM]	IC50 at 72 h (in vitro [7]) [µM]	other results
COc1cc(OC)c2c(=O)[nH]c(-c3ccc(C(=O)N4CCCC(CNc5ncc6c(C)cc(=O)n(C7CCCC7)c6n5)C4)cc3)nc2c1 (stereo not drawn)	0.297	–	–	–	–	–
COc1cc(OC)c2c(=O)[nH]c(-c3ccc(C(=O)N4CC5(CCN(c6ncc7c(C)cc(=O)n(C8CCCC8)c7n6)CC5)C4)cc3)nc2c1	0.036	–	–	–	–	IC50 [1]: > 1 µM; IC50 [2]: > 1 µM; inhibition [3]: 43.4%
CC(=O)c1c(C)c2cnc(Nc3ccc(N4CCNCC4)cn3)nc2n(C2CCCC2)c1=O [PALBOCICLIB]	–	22	16.3	15.3	> 20	–
Cc1sc2c(c1C)C(c1ccc(Cl)cc1)=N[C@@H](CC(=O)OC(C)(C)C)c1nnc(C)n1-2	–	37.6	6.44	5.06	> 20	IC50 (MDA-MB-231 [8]): 1.72 µM; IC50 (BT-549 [9]): 1.05 µM; IC50 at 72 h [10]: > 20 µM; half-life (in vitro [11]): 35.4 min; microsomal CLint (in vitro [12]): 39.5 µL/min/mg
